Assays:
H929 cells = assay: Cell viability assay in H929 cells (Cell TiterGlo); format: cell-based; settings: Homo sapiens, NCI-H929, 24 hours at 37° C.
Procedure: Cell viability assays were performed using A431 or H929 cells. A431 cells were seeded in 96-well plates at 10,000 cells/well, and after overnight incubation, treated with compounds at 2-times the final concentration to result in a dose response of 3-fold dilutions from 10 μM to 0.0005 μM (50 μL/well, 0.1% final DMSO concentration). H929 cells were seeded in 96-well plates at 10,000 cells/well and treated immediately with compounds as described above. After 24 hours at 37° C., cell viability was measured using Cell TiterGlo reagent (Promega) with a luminescence reader. Alternately, cell viability assays were performed in 384-well format. A431 cells were seeded in 384-well plates at 2500 cells/well and, after overnight incubation, treated with compounds in a dose response of 3-fold dilutions from 10 μM to 0.0005 μM (25 nL/well, 0.1% final DMSO concentration). For the H929 viability assay, 25 nL/well of the compounds was dispensed into 384-well plates in a dose response as described above and cells were immediately seeded in 384-well plates at 2500 cells/well. After 24 hours at 37° C., cell viability was measured using Cell TiterGlo reagent (Promega) with a luminescence reader.

CDK9/Cyclin T1 = target: T1, CDK9/Cyclin T1 (Homo sapiens, UniProt P50750); assay: CDK9 enzyme protocol (LANCE ULight TR-FRET kinase assay); format: biochemical; settings: 4 nM CDK9/Cyclin T1, 1000 μM ATP, 100 nM U-light MBP peptide, 30 minutes
T1 construct: purchased Carna Biosciences 04-110
T1 sequence (P50750 whole entry): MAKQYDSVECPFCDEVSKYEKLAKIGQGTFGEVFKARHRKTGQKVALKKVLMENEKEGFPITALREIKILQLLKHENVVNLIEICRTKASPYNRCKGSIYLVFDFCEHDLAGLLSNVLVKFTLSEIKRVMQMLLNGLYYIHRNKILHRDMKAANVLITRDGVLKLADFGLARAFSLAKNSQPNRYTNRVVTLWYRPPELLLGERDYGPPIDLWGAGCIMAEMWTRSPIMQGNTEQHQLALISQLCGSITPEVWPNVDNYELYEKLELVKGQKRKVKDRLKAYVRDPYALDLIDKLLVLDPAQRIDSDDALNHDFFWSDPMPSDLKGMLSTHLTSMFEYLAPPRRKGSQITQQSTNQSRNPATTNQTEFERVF
T1 sequence (O60563 whole entry partner): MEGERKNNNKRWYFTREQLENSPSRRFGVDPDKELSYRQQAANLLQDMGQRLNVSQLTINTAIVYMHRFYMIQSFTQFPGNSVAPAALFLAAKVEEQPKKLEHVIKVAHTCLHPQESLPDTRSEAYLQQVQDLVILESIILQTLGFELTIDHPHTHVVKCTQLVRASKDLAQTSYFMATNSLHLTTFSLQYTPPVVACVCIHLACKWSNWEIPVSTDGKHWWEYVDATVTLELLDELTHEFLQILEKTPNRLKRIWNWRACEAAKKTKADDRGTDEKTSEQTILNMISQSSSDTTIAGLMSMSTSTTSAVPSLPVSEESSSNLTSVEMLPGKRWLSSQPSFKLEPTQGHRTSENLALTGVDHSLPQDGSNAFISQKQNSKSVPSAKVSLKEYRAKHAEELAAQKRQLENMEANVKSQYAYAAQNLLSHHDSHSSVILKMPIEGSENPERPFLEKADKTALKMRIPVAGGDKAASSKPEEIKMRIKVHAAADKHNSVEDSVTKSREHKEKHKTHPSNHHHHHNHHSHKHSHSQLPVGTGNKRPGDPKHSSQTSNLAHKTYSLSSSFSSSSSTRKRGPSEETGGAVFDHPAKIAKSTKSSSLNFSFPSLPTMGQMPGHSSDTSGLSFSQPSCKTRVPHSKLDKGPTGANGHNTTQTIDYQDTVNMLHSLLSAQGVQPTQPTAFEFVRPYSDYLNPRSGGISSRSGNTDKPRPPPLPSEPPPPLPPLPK
Procedure: CDK9 enzyme activities were measured using LANCE ULight TR-FRET kinase assay reagents (PerkinElmer, Waltham, Mass.). Compounds were directly added in 100% DMSO to white low volume assay plates (Perkin Elmer Proxiplate 6008289) using a Labcyte Echo acoustic dispenser. Assay reagents in serine/threonine kinase assay buffer containing 20 mM HEPES, 10 mM MgCl2, 100 mM Na3VO4, and 0.0075% Triton X-100. were added for final reaction mixture concentrations of 1000 μM ATP, 100 nM U-light MBP peptide (Perkin Elmer TRF0109M) and reaction initiated with 4 nM CDK9/Cyclin T1 (Carna Biosciences 04-110). The kinase reaction was carried out for 30 minutes before addition of stopping buffer to a final of 20 mM EDTA and 0.5 nM of LANCE Ultra Europium anti-phospho-MBP antibody (PerkinElmer TRF0201M) in LANCE detection buffer (PerkinElmer CR97-100). The reaction was equilibrated for 1 hour and the signal read in the Perkin Elmer Envision in TR-FRET mode (excitation at 320 nm and emission at 615/665 nm).

SMILES | EC50 (H929 cells) [nM] | IC50 (CDK9/Cyclin T1) [nM]
COc1ccc(F)cc1-c1ncnc2[nH]c(C3=CCN(C)CC3)cc12 [Example 4, 4-(5-fluoro-2-methoxyphenyl)-6-(1-methyl-1,2,3,6-tetrahydropyridin-4-yl)-7H-pyrrolo[2,3-d]pyrimidine] | 350 | 23
COc1ccc(F)cc1-c1ncnc2[nH]c(C3=CCN(S(C)(=O)=O)CC3)cc12 [Example 5, 4-(5-fluoro-2-methoxyphenyl)-6-[1-(methylsulfonyl)-1,2,3,6-tetrahydropyridin-4-yl]-7H-pyrrolo[2,3-d]pyrimidine] | 380 | 20
COc1ccc(F)cc1-c1ncnc2[nH]c(C3=CCN(C(C)=O)CC3)cc12 [Example 6, 1-{4-[4-(5-fluoro-2-methoxyphenyl)-7H-pyrrolo[2,3-d]pyrimidin-6-yl]-3,6-dihydropyridin-1(2H)-yl}ethanone] | 410 | 42
COc1ccc(F)cc1-c1ncnc2[nH]c(C3=CCN(S(=O)(=O)C4CC4)CC3)cc12 [Example 8, 6-[1-(cyclopropylsulfonyl)-1,2,3,6-tetrahydropyridin-4-yl]-4-(5-fluoro-2-methoxyphenyl)-7H-pyrrolo[2,3-d]pyrimidine] | 690 | 19
COc1ccc(F)cc1-c1ncnc2[nH]c(C3=CCN(S(=O)(=O)C(C)C)CC3)cc12 [Example 10, 4-(5-fluoro-2-methoxyphenyl)-6-[1-(propan-2-ylsulfonyl)-1,2,3,6-tetrahydropyridin-4-yl]-7H-pyrrolo[2,3-d]pyrimidine] | 550 | 160
COc1ccc(F)cc1-c1ncnc2[nH]c(C3=CCN(C(=O)C4CC4)CC3)cc12 [Example 11, cyclopropyl{4-[4-(5-fluoro-2-methoxyphenyl)-7H-pyrrolo[2,3-d]pyrimidin-6-yl]-3,6-dihydropyridin-1(2H)-yl}methanone] | 310 | 43
COc1ccc(F)cc1-c1ncnc2[nH]c(C3=CCN(C(=O)C4CCN4)CC3)cc12 (stereo not drawn) [Example 12, azetidin-2-yl{4-[4-(5-fluoro-2-methoxyphenyl)-7H-pyrrolo[2,3-d]pyrimidin-6-yl]-3,6-dihydropyridin-1(2H)-yl}methanone] | 930 | 88
COc1ccc(F)cc1-c1ncnc2[nH]c(C3=CCN(C(=O)C4CC(=O)N4)CC3)cc12 (stereo not drawn) [Example 13, 4-({4-[4-(5-fluoro-2-methoxyphenyl)-7H-pyrrolo[2,3-d]pyrimidin-6-yl]-3,6-dihydropyridin-1(2H)-yl}carbonyl)azetidin-2-one] | 840 | 69
COc1ccc(F)cc1-c1ncnc2[nH]c(C3=CCN(C(=O)C4CCC(=O)NC4)CC3)cc12 (stereo not drawn) [Example 14, 5-({4-[4-(5-fluoro-2-methoxyphenyl)-7H-pyrrolo[2,3-d]pyrimidin-6-yl]-3,6-dihydropyridin-1(2H)-yl}carbonyl)piperidin-2-one] | 1700 | 65
COc1ccc(F)cc1-c1ncnc2[nH]c(C3=CCN(C(=O)C4CCCOC4)CC3)cc12 (stereo not drawn) [Example 15, 4-[4-(5-fluoro-2-methoxyphenyl)-7H-pyrrolo[2,3-d]pyrimidin-6-yl]-3,6-dihydropyridin-1(2H)-yl(tetrahydro-2H-pyran-3-yl)methanone] | 210 | 86
CCN1CCC(C(=O)N2CC=C(c3cc4c(-c5cc(F)ccc5OC)ncnc4[nH]3)CC2)C1 (stereo not drawn) [Example 16, (1-ethylpyrrolidin-3-yl){4-[4-(5-fluoro-2-methoxyphenyl)-7H-pyrrolo[2,3-d]pyrimidin-6-yl]-3,6-dihydropyridin-1(2H)-yl}methanone] | 1100 | 150
COCC(=O)N1CC=C(c2cc3c(-c4cc(F)ccc4OC)ncnc3[nH]2)CC1 [Example 18, 1-{4-[4-(5-fluoro-2-methoxyphenyl)-7H-pyrrolo[2,3-d]pyrimidin-6-yl]-3,6-dihydropyridin-1(2H)-yl}-2-methoxyethanone] | 400 | 130
C=CCNC(=O)N1CC=C(c2cc3c(-c4cc(F)ccc4OC)ncnc3[nH]2)CC1 [Example 19, 4-[4-(5-fluoro-2-methoxyphenyl)-7H-pyrrolo[2,3-d]pyrimidin-6-yl]-N-(prop-2-en-1-yl)-3,6-dihydropyridine-1(2H)-carboxamide] | 180 | 88
COc1ccc(F)cc1-c1ncnc2[nH]c(C3=CCN(CC(O)CO)CC3)cc12 (stereo not drawn) [Example 20, 3-{4-[4-(5-fluoro-2-methoxyphenyl)-7H-pyrrolo[2,3-d]pyrimidin-6-yl]-3,6-dihydropyridin-1(2H)-yl}propane-1,2-diol] | 380 | 
COc1ccc(F)cc1-c1ncnc2[nH]c(C3=CCN(Cc4ccccc4)CC3)cc12 [Example 21, 6-(1-benzyl-1,2,3,6-tetrahydropyridin-4-yl)-4-(5-fluoro-2-methoxyphenyl)-7H-pyrrolo[2,3-d]pyrimidine] | 440 | 35
COc1ccc(F)cc1-c1ncnc2[nH]c(C3=CCN(Cc4ccc(C#N)cc4)CC3)cc12 [Example 22, 4-({4-[4-(5-fluoro-2-methoxyphenyl)-7H-pyrrolo[2,3-d]pyrimidin-6-yl]-3,6-dihydropyridin-1(2H)-yl}methyl)benzonitrile] | 1100 | 240
COc1ccc(F)cc1-c1ncnc2[nH]c(C3=CCN(Cc4cccc(C#N)c4)CC3)cc12 [Example 23, 3-({4-[4-(5-fluoro-2-methoxyphenyl)-7H-pyrrolo[2,3-d]pyrimidin-6-yl]-3,6-dihydropyridin-1(2H)-yl}methyl)benzonitrile] | 420 | 270
COc1ccc(F)cc1-c1ncnc2[nH]c(C3=CCN(CC4CCCO4)CC3)cc12 (stereo not drawn) [Example 24, 4-(5-fluoro-2-methoxyphenyl)-6-[1-(tetrahydrofuran-2-ylmethyl)-1,2,3,6-tetrahydropyridin-4-yl]-7H-pyrrolo[2,3-d]pyrimidine] | 250 | 100
COc1ccc(F)cc1-c1ncnc2[nH]c(C3=CCN(Cc4ccc(NC(C)=O)cc4)CC3)cc12 [Example 25, N-[4-({4-[4-(5-fluoro-2-methoxyphenyl)-7H-pyrrolo[2,3-d]pyrimidin-6-yl]-3,6-dihydropyridin-1(2H)-yl}methyl)phenyl]acetamide] | 58 | 76
COc1ccc(F)cc1-c1ncnc2[nH]c(C3=CCN(Cc4ccccn4)CC3)cc12 [Example 26, 4-(5-fluoro-2-methoxyphenyl)-6-[1-(pyridin-2-ylmethyl)-1,2,3,6-tetrahydropyridin-4-yl]-7H-pyrrolo[2,3-d]pyrimidine] | 610 | 190
COc1ccc(F)cc1-c1ncnc2[nH]c(C3=CCN(Cc4ccncc4)CC3)cc12 [Example 27, 4-(5-fluoro-2-methoxyphenyl)-6-[1-(pyridin-4-ylmethyl)-1,2,3,6-tetrahydropyridin-4-yl]-7H-pyrrolo[2,3-d]pyrimidine] | 720 | 220
COc1ccc(F)cc1-c1ncnc2[nH]c(C3=CCN(Cc4ccc(NC(=O)OC(C)(C)C)cc4)CC3)cc12 [Example 69, tert-butyl [4-({4-[4-(5-fluoro-2-methoxyphenyl)-7H-pyrrolo[2,3-d]pyrimidin-6-yl]-3,6-dihydropyridin-1(2H)-yl}methyl)phenyl]carbamate] |  | 450
